The target in experiment [1] is T1, human CYP11B2 (Homo sapiens, UniProt P19099).
T1 construct: expressed in transfected cells
T1 sequence (P19099 25-503): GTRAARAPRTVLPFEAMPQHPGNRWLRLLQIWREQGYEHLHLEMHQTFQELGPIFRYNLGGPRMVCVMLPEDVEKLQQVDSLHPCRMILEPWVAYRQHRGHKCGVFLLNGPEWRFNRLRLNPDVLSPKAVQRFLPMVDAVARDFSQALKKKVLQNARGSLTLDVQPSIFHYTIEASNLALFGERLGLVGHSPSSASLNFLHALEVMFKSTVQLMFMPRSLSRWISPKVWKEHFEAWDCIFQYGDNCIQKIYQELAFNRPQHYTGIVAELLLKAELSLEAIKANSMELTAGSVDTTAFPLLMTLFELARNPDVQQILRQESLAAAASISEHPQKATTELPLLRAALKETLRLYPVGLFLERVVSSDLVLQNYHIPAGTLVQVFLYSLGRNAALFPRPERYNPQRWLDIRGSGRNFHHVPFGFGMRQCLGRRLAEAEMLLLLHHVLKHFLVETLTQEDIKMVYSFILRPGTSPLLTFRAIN
The experiment can be described thus: Inhibition of hCYP11B2 in transfected V79 cells. Format: cell-based. The settings on record: hamster V79 cells expressing human CYP11B2; substrate 11-deoxycorticosterone 200 nM. Summed up: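 Hamster V79 cells stably co-expressing human CYP11B2 and rat NADPH-P450 reductase were pre-incubated with compounds for 2 hours, then given 200 nM 11-deoxycorticosterone for 30 minutes before ethyl acetate quench. Substrate and product were quantified by LC-MS/MS or HPLC at 260 nm, and IC50 was derived from percent inhibition.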

Experiment [2] concerns the target T2, human CYP11B1 (Homo sapiens, UniProt P15538).
T2 construct: expressed in transfected cells
T2 sequence (P15538 25-503): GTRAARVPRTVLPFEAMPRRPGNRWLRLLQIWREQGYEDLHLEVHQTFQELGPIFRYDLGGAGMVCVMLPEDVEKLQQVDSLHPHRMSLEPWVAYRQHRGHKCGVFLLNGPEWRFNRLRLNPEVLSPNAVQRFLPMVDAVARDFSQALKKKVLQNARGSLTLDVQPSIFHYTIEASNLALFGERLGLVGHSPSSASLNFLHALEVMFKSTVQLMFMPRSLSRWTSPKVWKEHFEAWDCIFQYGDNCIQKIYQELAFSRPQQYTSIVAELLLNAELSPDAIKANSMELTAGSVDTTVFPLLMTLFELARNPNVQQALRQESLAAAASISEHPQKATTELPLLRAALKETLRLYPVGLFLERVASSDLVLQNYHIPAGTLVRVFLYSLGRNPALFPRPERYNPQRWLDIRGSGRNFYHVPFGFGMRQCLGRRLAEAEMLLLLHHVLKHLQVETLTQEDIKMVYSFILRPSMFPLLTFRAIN
The experiment can be described thus: Inhibition of hCYP11B1 in transfected V79 cells. It counts as cell-based. Particulars: hamster V79 cells expressing human CYP11B1; substrate 11-deoxycortisol 200 nM. The procedure, abridged:
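V79 hamster cells stably expressing human CYP11B1 and rat NADPH-P450 reductase were preincubated with compounds for 2 h. 11-Deoxycortisol (200 nM) was then added as substrate for 30 min before ethyl acetate quench. Substrate and product were quantified by LC-MS/MS or HPLC at 260 nm, and IC50 was derived from percent inhibition.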

The source of these data is patent US20260092074A1, “Annelated Pyridines as Steroidogenesis Inhibitors, Preparation Method and Use Thereof” (Guangzhou Vinnocent Pharmaceutical Limited, priority 2022, published 2026).

As usually defined, the pIC50 is the IC50 on a negative log10 scale, so that one unit is a factor of ten. A high value points to a small IC50.

SMILES strings stand for the structures. pIC50: −log10 of the molar value.

Turning to `N#Cc1ccc(-c2cncc3c2OCCN3S(=O)(=O)C2CN(S(=O)(=O)c3cccc(C#N)c3)C2)cc1` [O115, 3-((3-((8-(4-Cyanophenyl)-2,3-dihydro-4H-pyrido[4,3-b][1,4]oxazin-4-yl)sulfonyl)azetidin-1-yl)sulfonyl)benzonitrile], the pIC50 in experiment [1] is 8.49; in experiment [2], 6.98.
Turning to `N#Cc1ccc(-c2cncc3c2OCCN3S(=O)(=O)C2CN(S(=O)(=O)c3ccc(F)cc3)C2)cc1` [O116, 4-(4-((1-((4-Fluorophenyl)sulfonyl)azetidin-3-yl)sulfonyl)-3,4-dihydro-2H-pyrido[4,3-b][1, 4]oxazin-8-yl)benzonitrile], the pIC50 is 8.51 in experiment [1] and 7.27 in experiment [2].
As to `N#Cc1ccc(-c2cncc3c2OCCN3S(=O)(=O)C2CN(S(=O)(=O)c3cccc(F)c3)C2)cc1` [O117, 4-(4-((1-((3-Fluorophenyl)sulfonyl)azetidin-3-yl)sulfonyl)-3,4-dihydro-2H-pyrido[4,3-b][1, 4]oxazin-8-yl)benzonitrile], the pIC50 in experiment [1] was 8.62; in experiment [2], 7.35.
The corresponding values for `COc1ccc(S(=O)(=O)N2CC(S(=O)(=O)N3CCOc4c(-c5ccc(C#N)cc5)cncc43)C2)cc1` [O118, 4-(4-((1-((4-Methoxyphenyl)sulfonyl)azetidin-3-yl)sulfonyl)-3,4-dihydro-2H-pyrido[4,3-b][1,4]oxazin-8-yl)benzonitrile] are 8.57 and 7.41.
The corresponding values for `COc1cccc(S(=O)(=O)N2CC(S(=O)(=O)N3CCOc4c(-c5ccc(C#N)cc5)cncc43)C2)c1` [O119, 4-(4-((1-((3-Methoxyphenyl)sulfonyl)azetidin-3-yl)sulfonyl)-3,4-dihydro-2H-pyrido[4,3-b][1,4]oxazin-8-yl)benzonitrile] are 8.38 and 7.42.
For `N#Cc1ccc(-c2cncc3c2OCCN3S(=O)(=O)C2CN(Cc3cccc(C#N)c3)C2)cc1` [O120, 3-((3-((8-(4-Cyanophenyl)-2,3-dihydro-4H-pyrido[4,3-b][1,4]oxazin-4-yl)sulfonyl)azetidin-1-yl)methyl)benzonitrile], the figures for the pIC50 in experiment [1] and in experiment [2] were 9.52 and 7.54, respectively.
Take `N#Cc1ccc(CN2CC(S(=O)(=O)N3CCOc4c(-c5ccc(C#N)cc5)cncc43)C2)cc1` [O121, 4-(4-((1-(4-Cyanobenzyl)azetidin-3-yl)sulfonyl)-3,4-dihydro-2H-pyrido[4,3-b][1,4]oxazin-8-yl)benzonitrile]: the pIC50 was 9.40 in experiment [1] and 7.44 in experiment [2].
The corresponding values for `N#Cc1ccc(-c2cncc3c2OCCN3S(=O)(=O)C2CN(Cc3cccc(F)c3)C2)cc1` [O122, 4-(4-((1-(3-Fluorobenzyl)azetidin-3-yl)sulfonyl)-3,4-dihydro-2H-pyrido[4,3-b][1,4]oxazin-8-yl)benzonitrile] are 9.10 and 7.23.
Turning to `N#Cc1ccc(-c2cncc3c2OCCN3S(=O)(=O)C2CN(Cc3ccc(F)cc3)C2)cc1` [O123, 4-(4-((1-(4-Fluorobenzyl)azetidin-3-yl)sulfonyl)-3,4-dihydro-2H-pyrido[4,3-b][1,4]oxazin-8-yl)benzonitrile], the results for the negative logarithm of the IC50 (pIC50) in experiment [1] and in experiment [2] were 9.52 and 7.59, respectively.
The corresponding values for `COc1cccc(CN2CC(S(=O)(=O)N3CCOc4c(-c5ccc(C#N)cc5)cncc43)C2)c1` [O124, 4-(4-((1-(3-Methoxybenzyl)azetidin-3-yl)sulfonyl)-3,4-dihydro-2H-pyrido[4,3-b][1,4]oxazin-8-yl)benzonitrile] are 9.22 and 7.42.
For the compound `COc1ccc(CN2CC(S(=O)(=O)N3CCOc4c(-c5ccc(C#N)cc5)cncc43)C2)cc1` [O125, 4-(4-((1-(4-Methoxybenzyl)azetidin-3-yl)sulfonyl)-3,4-dihydro-2H-pyrido[4,3-b][1,4]oxazin-8-yl)benzonitrile], the figures for the pIC50 in experiment [1] and in experiment [2] were 9.30 and 7.55, respectively.
The corresponding values for `N#Cc1ccc(-c2cncc3c2OCCN3S(=O)(=O)C2CN(c3cccc(F)c3)C2)cc1` [O126, 4-(4-((1-(3-Fluorophenyl)azetidin-3-yl)sulfonyl)-3,4-dihydro-2H-pyrido[4,3-b][1,4]oxazin-8-yl)benzonitrile] are 8.52 and 6.90.
On to `N#Cc1ccc(-c2cncc3c2OCCN3S(=O)(=O)C2CN(c3ccc(F)cc3)C2)cc1` [O127, 4-(4-((1-(4-Fluorophenyl)azetidin-3-yl)sulfonyl)-3,4-dihydro-2H-pyrido[4,3-b][1,4]oxazin-8-yl)benzonitrile], for which the pIC50 in experiment [1] is 8.64; in experiment [2], 6.71.
The corresponding values for `N#Cc1ccc(S(=O)(=O)N2CCOc3c(-c4cc5cc(Cl)ccc5o4)cncc32)cc1` [O128, 4-((8-(5-Chlorobenzofuran-2-yl)-2,3-dihydro-4H-pyrido[4,3-b][1,4]oxazin-4-yl)sulfonyl)benzonitrile] are 8.48 and 6.59.
In the same order, the values of `N#Cc1ccc(S(=O)(=O)N2CCOc3c(-c4cc5cc(C#N)ccc5o4)cncc32)cc1` [O129, 2-(4-((4-Cyanophenyl)sulfonyl)-3,4-dihydro-2H-pyrido[4,3-b][1,4]oxazin-8-yl)benzofuran-5-carbonitril] are 8.72 and 6.61.
The corresponding values for `N#Cc1ccc(-c2cncc3c2OCCN3S(=O)(=O)c2ccc(C#N)cc2)cc1` [O130, 4-((8-(4-Cyanophenyl)-2,3-dihydro-4H-pyrido[4,3-b][1,4]oxazin-4-yl)sulfonyl)benzonitrile] are 8.30 and 7.01.
Take `N#Cc1ccc(S(=O)(=O)N2CCOc3c(-c4ccc5ncoc5c4)cncc32)cc1` [O131, 4-((8-(Benzo[d]oxazol-6-yl)-2,3-dihydro-4H-pyrido[4,3-b][1,4]oxazin-4-yl)sulfonyl)benzonitrile]: the pIC50 was 8.48 in experiment [1] and 6.61 in experiment [2].
The corresponding values for `N#Cc1ccc(S(=O)(=O)N2CCOc3c(-c4ccc5c(c4)NC(=O)C5)cncc32)cc1` [O132, 4-((8-(2-Oxoindolin-6-yl)-2,3-dihydro-4H-pyrido[4,3-b][1,4]oxazin-4-yl)sulfonyl)benzonitrile] are 8.27 and 6.77.
Take `N#CC12CC(c3cncc4c3OCCN4C(=O)C3CN(Cc4cccc(F)c4)C3)(C1)C2` [O133, 3-(4-(1-(3-Fluorobenzyl)azetidine-3-carbonyl)-3,4-dihydro-2H-pyrido[4,3-b][1,4]oxazin-8-yl)bicyclo[1.1.1]pentane-1-carbonitrile]: the pIC50 is 7.26 in experiment [1] and 5.38 in experiment [2].
In the same order, the values of `N#CN1CC2(C1)CN(c1cncc3c1OCCN3C(=O)C1CN(Cc3cccc(F)c3)C1)C2` [O134, 6-(4-(1-(3-Fluorobenzyl)azetidine-3-carbonyl)-3,4-dihydro-2H-pyrido[4,3-b][1,4]oxazin-8-yl)-2,6-diazaspiro[3.3]heptane-2-carbonitrile] are 7.28 and 5.45.
On to `O=C(C1CN(Cc2cccc(F)c2)C1)N1CCOc2c(N3CCn4cnnc4C3)cncc21` [O135, (8-(5,6-Dihydro-[1,2,4]triazolo[4,3-a]pyrazin-7 (8H)-yl)-2,3-dihydro-4H-pyrido[4,3-b][1,4]oxazin-4-yl)(1-(3-fluorobenzyl)azetidin-3-yl)methanone], for which the pIC50 in experiment [1] is 7.18; in experiment [2] it was 5.38.
